Laboratory results published in PubChem BioAssay AID192 (DTP/NCI, 2004).
“And” between values parts separate entries of the source, which are not always exact repeats. Identical values can stand only once. Toxic doses and inconclusive results are not listed. How the source made its calls: active means survival T/C of 150% or more; inactive means T/C below 125% in these data.

Test system: BDF1 mice, B16 melanoma ip, median survival T/C
Assay: NCI In Vivo Anticancer Drug Screen. Data for tumor model B16 Melanoma (intraperitoneal) in B6D2F1 (BDF1) mice
Conditions: endpoint: median survival time, higher = longer survival
Summary of the method: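 Vehicle-treated animals serve as the reference (C); treated animals (T) are scored for survival or tumor size after tumor transplantation.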

[1] = dose: 25.0 mg/kg/injection, schedule: Q01DX009 (ip), vehicle: saline
[2] = dose: 25.0 mg/kg/injection, schedule: Q01DX009 (ip), vehicle: Klucel (hydroxypropylcellulose) (HPC)
[3] = dose: 50.0 mg/kg/injection, schedule: Q01DX009 (ip), vehicle: Klucel (hydroxypropylcellulose) (HPC)
[4] = dose: 100.0 mg/kg/injection, schedule: Q01DX009 (ip), vehicle: Klucel (hydroxypropylcellulose) (HPC)
[5] = dose: 0.39 mg/kg/injection, schedule: Q01DX009 (ip), vehicle: Klucel (hydroxypropylcellulose) (HPC)
[6] = dose: 3.12 mg/kg/injection, schedule: Q01DX009 (ip), vehicle: Klucel (hydroxypropylcellulose) (HPC)
[7] = dose: 6.25 mg/kg/injection, schedule: Q01DX009 (ip), vehicle: Klucel (hydroxypropylcellulose) (HPC)
[8] = dose: 12.5 mg/kg/injection, schedule: Q01DX009 (ip), vehicle: Klucel (hydroxypropylcellulose) (HPC)
[9] = dose: 100.0 mg/kg/injection, schedule: Q01DX009 (ip), vehicle: saline
[10] = dose: 200.0 mg/kg/injection, schedule: Q01DX009 (ip), vehicle: saline
[11] = dose: 400.0 mg/kg/injection, schedule: Q01DX009 (ip), vehicle: saline
[12] = dose: 200.0 mg/kg/injection, schedule: Q01DX009 (ip), vehicle: Klucel (hydroxypropylcellulose) (HPC)
[13] = dose: 50.0 mg/kg/injection, schedule: Q01DX009 (ip), vehicle: saline
[14] = dose: 100.0 mg/kg/injection, schedule: Q01DX009 (ip), vehicle: saline with Tween-80
[15] = dose: 200.0 mg/kg/injection, schedule: Q01DX009 (ip), vehicle: saline with Tween-80
[16] = dose: 400.0 mg/kg/injection, schedule: Q01DX009 (ip), vehicle: saline with Tween-80
[17] = dose: 12.5 mg/kg/injection, schedule: Q01DX009 (ip), vehicle: water
[18] = dose: 25.0 mg/kg/injection, schedule: Q01DX009 (ip), vehicle: water

Measured: T/C

CCc1ccccc1NC(=O)Nc1ccc(Cl)cc1
inactive: dose: 100.0 mg/kg/injection, schedule: Q01DX009 (ip), vehicle: gum acacia 101 % of control | dose: 200.0 mg/kg/injection, schedule: Q01DX009 (ip), vehicle: gum acacia 97 % of control | dose: 400.0 mg/kg/injection, schedule: Q01DX009 (ip), vehicle: gum acacia 93 % of control

CN1CN(C)CN(C)C1
inactive: [1] 118 % of control

CC(=N\O)/C(C)=N/O.CC(=N\O)/C(C)=N/O.CC(=N\O)/C(C)=N/O.CC(=N\O)/C(C)=N/O.[CH3-].[CH3-].[Co].[Co]
inactive: [2] 107 % of control | [3] 90 % of control | [4] 100 % of control

CC(C)(C)c1ccc(CN2CCN(C(c3ccccc3)c3ccc(Cl)cc3)CC2)cc1 (stereo not given)
inactive: [5] 86 % of control | [6] 95 % of control | [7] 90 % of control | [8] 87 % of control | dose: 175.0 nanograms/kg/injection, schedule: Q01DX009 (ip), vehicle: Klucel (hydroxypropylcellulose) (HPC) 105 % of control | dose: 350.0 nanograms/kg/injection, schedule: Q01DX009 (ip), vehicle: Klucel (hydroxypropylcellulose) (HPC) 105 % of control | dose: 700.0 nanograms/kg/injection, schedule: Q01DX009 (ip), vehicle: Klucel (hydroxypropylcellulose) (HPC) 101 % of control | dose: 1400.0 nanograms/kg/injection, schedule: Q01DX009 (ip), vehicle: Klucel (hydroxypropylcellulose) (HPC) 105 % of control | dose: 2800.0 nanograms/kg/injection, schedule: Q01DX009 (ip), vehicle: Klucel (hydroxypropylcellulose) (HPC) 107 % of control

CCC(C)CC(=O)O (stereo not given)
inactive: [9] 97 % of control | [10] 97 % of control | [11] 93 % of control

Cc1cc([N+](=O)[O-])cc(C)c1OC(=O)c1ccc(N=C(N)N)cc1
inactive: [8] 98 % of control | [2] 97 % of control | [3] 90 % of control

CCOC(=N)c1cn(C2OC(CO)C(O)C2O)c2ncnc(N)c12 (stereo not given)
inactive: dose: 0.25 mg/kg/injection, schedule: Q01DX009 (ip), vehicle: saline 100 % of control | dose: 0.5 mg/kg/injection, schedule: Q01DX009 (ip), vehicle: saline 105 % of control

C=CCNC(=S)Nc1ccc(C)cc1
inactive: [3] 100 % of control | [4] 93 % of control | [12] 90 % of control

c1ccc(CCN2CCCCC2)nc1
inactive: dose: 1.56 mg/kg/injection, schedule: Q01DX009 (ip), vehicle: saline 109 % of control | dose: 3.13 mg/kg/injection, schedule: Q01DX009 (ip), vehicle: saline 106 % of control | dose: 6.25 mg/kg/injection, schedule: Q01DX009 (ip), vehicle: saline 100 % of control

CC(C)C1(c2ccsc2)NC(=O)NC1=O (stereo not given)
inactive: [3] 108 % of control | [4] 122 % of control | [12] 109 % of control

CCN(CC)CCOC(=O)Cc1cccc2c(=O)cc(-c3ccccc3)oc12
inactive: [1] 109 % of control | [13] 113 % of control

O=C(Nc1ccccc1C(F)(F)F)c1ccc(Cl)cc1Cl
inactive: [14] 97 % of control | [15] 92 % of control

C[C@@H]1C[C@H]2[C@@H]3CCC4=CC(=O)C=C[C@]4(C)[C@@]3(F)[C@@H](O)C[C@]2(C)[C@@]1(O)C(=O)CO
inactive: [6] 114 % of control | [7] 107 % of control | [8] 114 % of control | [2] 107 % of control | [3] 115 % of control

COc1ccccc1NC(=O)Nc1ccccc1OC
inactive: [4] 89 % of control | [12] 89 % of control | dose: 400.0 mg/kg/injection, schedule: Q01DX009 (ip), vehicle: Klucel (hydroxypropylcellulose) (HPC) 88 % of control

Nc1nc(N)nc(-c2ccc([N+](=O)[O-])o2)n1
inactive: [14] 103 % of control | [15] 97 % of control | [16] 90 % of control

CN1C(=O)NC(c2ccc(Cl)cc2)(c2ccc(Cl)cc2)C1=O
inactive: dose: 0.78 mg/kg/injection, schedule: Q01DX009 (ip), vehicle: water 100 % of control | dose: 1.56 mg/kg/injection, schedule: Q01DX009 (ip), vehicle: water 95 % of control | dose: 3.12 mg/kg/injection, schedule: Q01DX009 (ip), vehicle: water 100 % of control | dose: 6.25 mg/kg/injection, schedule: Q01DX009 (ip), vehicle: water 100 % of control and 112 % of control | dose: 12.5 mg/kg/injection, schedule: Q01DX009 (ip), vehicle: distilled water + Tween-80 100 % of control | [17] 99 % of control and 102 % of control | dose: 25.0 mg/kg/injection, schedule: Q01DX009 (ip), vehicle: distilled water + Tween-80 105 % of control | [18] 101 % of control and 105 % of control | dose: 50.0 mg/kg/injection, schedule: Q01DX009 (ip), vehicle: distilled water + Tween-80 99 % of control | dose: 100.0 mg/kg/injection, schedule: Q01DX009 (ip), vehicle: distilled water + Tween-80 116 % of control | dose: 200.0 mg/kg/injection, schedule: Q01DX009 (ip), vehicle: distilled water + Tween-80 98 % of control

COc1ccc(S(=O)(=O)NC(=S)S)cc1
inactive: [17] 103 % of control | [18] 102 % of control | dose: 50.0 mg/kg/injection, schedule: Q01DX009 (ip), vehicle: water 100 % of control | dose: 100.0 mg/kg/injection, schedule: Q01DX009 (ip), vehicle: water 103 % of control

C=C1CCN(c2cccc(Cl)c2)C1=O
inactive: dose: 1.0 mg/kg/injection, schedule: Q01DX009 (ip), vehicle: saline + alcohol 107 % of control | dose: 2.0 mg/kg/injection, schedule: Q01DX009 (ip), vehicle: saline + alcohol 117 % of control | dose: 4.0 mg/kg/injection, schedule: Q01DX009 (ip), vehicle: saline + alcohol 101 % of control and 115 % of control | dose: 8.0 mg/kg/injection, schedule: Q01DX009 (ip), vehicle: saline + alcohol 101 % of control | dose: 16.0 mg/kg/injection, schedule: Q01DX009 (ip), vehicle: saline + alcohol 95 % of control | dose: 32.0 mg/kg/injection, schedule: Q01DX009 (ip), vehicle: saline + alcohol 96 % of control | dose: 64.0 mg/kg/injection, schedule: Q01DX009 (ip), vehicle: saline + alcohol 100 % of control

C[Si](C)(C)c1cc(F)c(F)c(F)c1F
inactive: dose: 100.0 mg/kg/injection, schedule: Q04DX003 (ip), vehicle: Klucel (hydroxypropylcellulose) (HPC) 90 % of control | dose: 200.0 mg/kg/injection, schedule: Q04DX003 (ip), vehicle: Klucel (hydroxypropylcellulose) (HPC) 92 % of control | dose: 400.0 mg/kg/injection, schedule: Q04DX003 (ip), vehicle: Klucel (hydroxypropylcellulose) (HPC) 94 % of control

FC1(F)SC2C3CC(C4CCC=C43)C2C1(F)F (stereo not given)
inactive: [5] 89 % of control | dose: 0.78 mg/kg/injection, schedule: Q01DX009 (ip), vehicle: Klucel (hydroxypropylcellulose) (HPC) 103 % of control

Cn1c[n+](C)cc1C(=O)[O-]
inactive: [9] 115 % of control | [10] 115 % of control | [11] 109 % of control

O=[N+]([O-])c1cccc2c(S(=O)(=O)O)cccc12
inactive: [13] 113 % of control | [9] 110 % of control | [10] 91 % of control

CC(=O)Oc1c(Br)cc(Br)cc1-c1ccccc1
inactive: dose: 50.0 mg/kg/injection, schedule: Q01DX009 (ip), vehicle: saline with Tween-80 98 % of control | [14] 94 % of control | [15] 98 % of control | [16] 91 % of control
